According to ChEMBL document CHEMBL1201862, “PubChem BioAssay data set” (2004):
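Values below derive from 48-hour exposures of cells grown in 96-well plates, with endpoints linearly interpolated between the two concentrations bracketing the appropriate inhibition level. The concentration for 50% growth inhibition is given as GI50.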 The source made the active and inactive calls. Rule as the data show it: active = GI50 up to about 1.1 µM and inactive = higher.

What was measured:
Test in all cases: NCI tumour cell line growth inhibition, 48 h
[1] = tested on: MDA-MB-231
[2] = tested on: SK-MEL-5
[3] = tested on: NCI-H226
[4] = tested on: OVCAR-4
[5] = tested on: RXF 393
[6] = tested on: UACC-62
[7] = tested on: HCC 2998
[8] = tested on: SN12C
[9] = tested on: NCI-H23
[10] = tested on: KM12
[11] = tested on: HCT-15
[12] = tested on: RPMI-8226
[13] = tested on: PC-3
[14] = tested on: SW-620
[15] = tested on: A549
[16] = tested on: SF-295
[17] = tested on: CCRF-CEM
[18] = tested on: NCI-H522
[19] = tested on: T47D
[20] = tested on: SR
[21] = tested on: SNB-19
[22] = tested on: 786-0
[23] = tested on: EKVX
[24] = tested on: MDA-MB-435
[25] = tested on: MOLT-4
[26] = tested on: ACHN
[27] = tested on: MCF7
[28] = tested on: OVCAR-5
[29] = tested on: OVCAR-3
[30] = tested on: HOP-62
[31] = tested on: SK-MEL-28
[32] = tested on: NCI/ADR-RES
[33] = tested on: LOX IMVI
[34] = tested on: NCI-H460
[35] = tested on: HOP-92
[36] = tested on: U-251
[37] = tested on: MDA-N
[38] = tested on: SK-MEL-2
[39] = tested on: IGROV-1
[40] = tested on: K562
[41] = tested on: SF-268
[42] = tested on: BT-549
[43] = tested on: COLO 205
[44] = tested on: OVCAR-8
[45] = tested on: HL-60
[46] = tested on: HT-29
[47] = tested on: SF-539
[48] = tested on: SK-OV-3
[49] = tested on: UACC-257
[50] = tested on: Hs-578T
[51] = tested on: CAKI-1
[52] = tested on: HCT-116
[53] = tested on: Malme-3M
[54] = tested on: SNB-75
[55] = tested on: DU-145
[56] = tested on: TK-10
[57] = tested on: UO-31
[58] = tested on: M14

Compound: COc1ccc(C[C@H]2COC(=O)[C@@H]2Cc2ccc(Br)cc2)cc1OC
- GI50 [1]: 24 µM (inactive)
- GI50 [2]: 5.06 µM (inactive)
- GI50 [3]: 28.8 µM (inactive)
- GI50 [4]: 19.7 µM (inactive)
- GI50 [5]: 20 µM (inactive)
- GI50 [6]: 27.8 µM (inactive)
- GI50 [7]: 28.3 µM (inactive)
- GI50 [8]: 29.7 µM (inactive)
- GI50 [9]: 9.06 µM (inactive)
- GI50 [10]: 21.9 µM (inactive)
- GI50 [11]: 17.3 µM
- GI50 [12]: 17.9 µM (inactive)
- GI50 [13]: 15.6 µM (inactive)
- GI50 [14]: 44.7 µM (inactive)
- GI50 [15]: 20 µM (inactive)
- GI50 [16]: 14.5 µM (inactive)
- GI50 [17]: 18.9 µM (inactive)
- GI50 [18]: 13.7 µM (inactive)
- GI50 [19]: 6.08 µM (inactive)
- GI50 [20]: 20.7 µM (inactive)
- GI50 [21]: 26.9 µM (inactive)
- GI50 [22]: 38 µM (inactive)
- GI50 [23]: 7.19 µM (inactive)
- GI50 [24]: 19.5 µM (inactive)
- GI50 [25]: 13 µM (inactive)
- GI50 [26]: 15.1 µM (inactive)
- GI50 [27]: 16.6 µM (inactive)
- GI50 [28]: 23.4 µM (inactive)
- GI50 [29]: 15.2 µM (inactive)
- GI50 [30]: 33.6 µM (inactive)
- GI50 [31]: 42.2 µM (inactive)
- GI50 [32]: 10.7 µM (inactive)
- GI50 [33]: 11.2 µM (inactive)
- GI50 [34]: 33.4 µM (inactive)
- GI50 [35]: 20.2 µM (inactive)
- GI50 [36]: 35 µM (inactive)
- GI50 [37]: 27.7 µM (inactive)
- GI50 [38]: 19.9 µM (inactive)
- GI50 [39]: 16.1 µM (inactive)
- GI50 [40]: 11.7 µM (inactive)
- GI50 [41]: 20.1 µM (inactive)
- GI50 [42]: 17.5 µM (inactive)
- GI50 [43]: 21.2 µM (inactive)
- GI50 [44]: 30.7 µM (inactive)
- GI50 [45]: 20.4 µM (inactive)
- GI50 [46]: 30.4 µM (inactive)
- GI50 [47]: 38.2 µM (inactive)
- GI50 [48]: 22 µM (inactive)
- GI50 [49]: 11.5 µM (inactive)
- GI50 [50]: 26.5 µM (inactive)
- GI50 [51]: 34 µM (inactive)
- GI50 [52]: 19.1 µM (inactive)
- GI50 [53]: 25.4 µM (inactive)
- GI50 [54]: 23.3 µM (inactive)
- GI50 [55]: 16.8 µM (inactive)
- GI50 [56]: 28.6 µM (inactive)
- GI50 [57]: 6.18 µM (inactive)
- GI50 [58]: 33.3 µM (inactive)

Compound: COC1CC(OC2C(C)OC(OC3C(C)OC(OC4C(C)OC(O[C@H]5CC[C@@]6(C)C(=CC[C@]7(O)[C@@H]6C[C@@H](OC(C)=O)[C@@]6(C)[C@]7(O)CC[C@@]6(O)C(C)=O)C5)CC4OC)CC3OC)CC2OC)OC(C)C1O (stereo partly drawn)
- GI50 [1]: > 25 µM (inactive)
- GI50 [2]: > 25 µM (inactive)
- GI50 [3]: > 25 µM (inactive)
- GI50 [4]: > 25 µM (inactive)
- GI50 [6]: > 25 µM (inactive)
- GI50 [7]: > 25 µM (inactive)
- GI50 [8]: > 25 µM (inactive)
- GI50 [9]: > 25 µM (inactive)
- GI50 [10]: > 25 µM (inactive)
- GI50 [11]: > 25 µM
- GI50 [12]: > 25 µM (inactive)
- GI50 [13]: > 25 µM (inactive)
- GI50 [14]: > 25 µM (inactive)
- GI50 [15]: > 25 µM (inactive)
- GI50 [16]: > 25 µM (inactive)
- GI50 [17]: > 25 µM (inactive)
- GI50 [18]: > 25 µM (inactive)
- GI50 [19]: > 25 µM (inactive)
- GI50 [20]: > 25 µM (inactive)
- GI50 [21]: > 25 µM (inactive)
- GI50 [22]: > 25 µM (inactive)
- GI50 [23]: > 25 µM (inactive)
- GI50 [24]: > 25 µM (inactive)
- GI50 [25]: > 25 µM (inactive)
- GI50 [26]: > 25 µM (inactive)
- GI50 [27]: > 25 µM (inactive)
- GI50 [28]: > 25 µM (inactive)
- GI50 [29]: > 25 µM (inactive)
- GI50 [30]: > 25 µM (inactive)
- GI50 [32]: > 25 µM (inactive)
- GI50 [33]: > 25 µM (inactive)
- GI50 [35]: > 25 µM (inactive)
- GI50 [36]: > 25 µM (inactive)
- GI50 [37]: > 25 µM (inactive)
- GI50 [38]: > 25 µM (inactive)
- GI50 [39]: > 25 µM (inactive)
- GI50 [40]: > 25 µM (inactive)
- GI50 [41]: > 25 µM (inactive)
- GI50 [42]: > 25 µM (inactive)
- GI50 [43]: > 25 µM (inactive)
- GI50 [44]: > 25 µM (inactive)
- GI50 [45]: > 25 µM (inactive)
- GI50 [46]: > 25 µM (inactive)
- GI50 [47]: > 25 µM (inactive)
- GI50 [48]: > 25 µM (inactive)
- GI50 [49]: > 25 µM (inactive)
- GI50 [50]: > 25 µM (inactive)
- GI50 [51]: > 25 µM (inactive)
- GI50 [52]: > 25 µM (inactive)
- GI50 [53]: > 25 µM (inactive)
- GI50 [54]: > 25 µM (inactive)
- GI50 [55]: > 25 µM (inactive)
- GI50 [56]: > 25 µM (inactive)
- GI50 [57]: > 25 µM (inactive)
- GI50 [58]: > 25 µM (inactive)
